Assay results from PubChem BioAssay (NCI).
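Five concentrations, 48 hours, 96-well plates. The concentration for 50% growth inhibition is given as GI50. TGI denotes the concentration required for complete inhibition of growth.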

Assays:
Assay in all cases: inhibition of tumour cell growth, NCI panel, 48 h
[1] = system: NCI-H522 lung
[2] = system: NCI/ADR-RES ovarian
[3] = system: IGROV1 ovarian
[4] = system: OVCAR-3 ovarian
[5] = system: HCT-15 colon
[6] = system: SK-MEL-28 melanoma
[7] = system: HT29 colon
[8] = system: SK-MEL-5 melanoma
[9] = system: LOX IMVI melanoma
[10] = system: ACHN renal
[11] = system: COLO 205 colon
[12] = system: OVCAR-8 ovarian
[13] = system: UACC-257 melanoma
[14] = system: SNB-19 CNS
[15] = system: PC-3 prostate
[16] = system: RPMI-8226 leukemia
[17] = system: MOLT-4 leukemia
[18] = system: NCI-H23 lung
[19] = system: SW-620 colon
[20] = system: M14 melanoma
[21] = system: CAKI-1 renal
[22] = system: SF-268 CNS
[23] = system: HL-60(TB) leukemia
[24] = system: UO-31 renal
[25] = system: KM12 colon
[26] = system: MDA-MB-231 breast
[27] = system: SK-OV-3 ovarian
[28] = system: DU-145 prostate
[29] = system: SR leukemia
[30] = system: MDA-MB-435
[31] = system: SF-539 CNS
[32] = system: A549 NSCLC
[33] = system: BT-549 breast
[34] = system: U251 CNS
[35] = system: NCI-H460 lung
[36] = system: EKVX NSCLC
[37] = system: HOP-62 NSCLC
[38] = system: NCI-H226 lung
[39] = system: MALME-3M melanoma
[40] = system: OVCAR-4 ovarian
[41] = system: SK-MEL-2 melanoma
[42] = system: HCC-2998 colon
[43] = system: CCRF-CEM leukemia
[44] = system: A498 renal
[45] = system: T-47D breast
[46] = system: HOP-92 NSCLC
[47] = system: SF-295 CNS
[48] = system: UACC-62 melanoma
[49] = system: SN12C renal
[50] = system: HCT-116 colon
[51] = system: 786-0 renal
[52] = system: HS 578T breast
[53] = system: OVCAR-5 ovarian
[54] = system: TK-10 renal
[55] = system: RXF 393 renal
[56] = system: K-562 leukemia
[57] = system: MDA-N
[58] = system: SNB-75 CNS
[59] = system: MCF7 breast
[60] = system: KM20L2 colon

c1cc(CSSCc2ccncc2)ccn1
TGI [1]: 60.2 µM
TGI [2]: > 85.3 µM
TGI [3]: > 100 µM
TGI [4]: > 100 µM
TGI [5]: > 100 µM
TGI [6]: > 100 µM
TGI [7]: > 100 µM
TGI [8]: 56.6 µM
TGI [9]: > 100 µM
TGI [10]: > 100 µM
TGI [11]: 49.2 µM
TGI [12]: > 100 µM
TGI [13]: > 100 µM
TGI [14]: > 100 µM
TGI [15]: > 100 µM
TGI [16]: > 65.3 µM
TGI [17]: 23.7 µM
TGI [18]: > 93.2 µM
TGI [19]: > 100 µM
TGI [20]: > 82.6 µM
TGI [21]: > 100 µM
TGI [22]: > 94.3 µM
TGI [23]: 42.4 µM
TGI [24]: > 100 µM
TGI [25]: > 100 µM
TGI [26]: > 100 µM
TGI [27]: > 100 µM
TGI [28]: > 66.4 µM
TGI [29]: 30.3 µM
TGI [30]: > 68.3 µM
TGI [31]: 50.2 µM
TGI [32]: > 100 µM
TGI [33]: > 100 µM
TGI [34]: > 70.9 µM
TGI [35]: > 84.9 µM
TGI [36]: > 100 µM
TGI [37]: > 100 µM
TGI [38]: > 85.5 µM
TGI [39]: > 100 µM
TGI [40]: > 100 µM
TGI [41]: 82.1 µM
TGI [42]: 58.7 µM
TGI [43]: 24.2 µM
TGI [44]: > 100 µM
TGI [45]: > 100 µM
TGI [46]: > 100 µM
TGI [47]: > 100 µM
TGI [48]: > 100 µM
TGI [49]: > 100 µM
TGI [50]: > 100 µM
TGI [51]: > 100 µM
TGI [52]: 76 µM
TGI [53]: > 100 µM
TGI [54]: > 100 µM
TGI [55]: > 75.7 µM
TGI [56]: > 100 µM
TGI [57]: 62.9 µM
TGI [58]: > 100 µM
TGI [59]: > 100 µM

N.N.O=P([O-])([O-])CN(CCN(CP(=O)([O-])[O-])CP(=O)([O-])[O-])CP(=O)([O-])[O-].[Pt+2]
GI50 [3]: > 100 µM
TGI [3]: > 100 µM
GI50 [4]: > 100 µM
TGI [4]: > 100 µM
GI50 [6]: > 100 µM
TGI [6]: > 100 µM
GI50 [7]: > 100 µM
TGI [7]: > 100 µM
GI50 [8]: > 100 µM
TGI [8]: > 100 µM
GI50 [9]: > 100 µM
TGI [9]: > 100 µM
GI50 [10]: > 100 µM
TGI [10]: > 100 µM
GI50 [11]: > 100 µM
TGI [11]: > 100 µM
GI50 [12]: > 100 µM
TGI [12]: > 100 µM
GI50 [13]: > 100 µM
TGI [13]: > 100 µM
GI50 [14]: > 100 µM
TGI [14]: > 100 µM
GI50 [16]: > 100 µM
TGI [16]: > 100 µM
GI50 [17]: > 100 µM
TGI [17]: > 100 µM
GI50 [18]: > 100 µM
TGI [18]: > 100 µM
GI50 [19]: > 100 µM
TGI [19]: > 100 µM
GI50 [20]: > 100 µM
TGI [20]: > 100 µM
GI50 [21]: > 100 µM
TGI [21]: > 100 µM
GI50 [22]: > 100 µM
TGI [22]: > 100 µM
GI50 [23]: > 100 µM
TGI [23]: > 100 µM
GI50 [24]: > 100 µM
TGI [24]: > 100 µM
GI50 [25]: > 100 µM
TGI [25]: > 100 µM
GI50 [27]: > 100 µM
TGI [27]: > 100 µM
GI50 [31]: > 100 µM
TGI [31]: > 100 µM
GI50 [32]: > 100 µM
TGI [32]: > 100 µM
GI50 [34]: > 100 µM
TGI [34]: > 100 µM
GI50 [35]: > 100 µM
TGI [35]: > 100 µM
GI50 [36]: > 100 µM
TGI [36]: > 100 µM
GI50 [37]: > 100 µM
TGI [37]: > 100 µM
GI50 [38]: > 100 µM
TGI [38]: > 100 µM
GI50 [39]: > 100 µM
TGI [39]: > 100 µM
GI50 [40]: > 100 µM
TGI [40]: > 100 µM
GI50 [41]: > 100 µM
TGI [41]: > 100 µM
GI50 [42]: > 100 µM
TGI [42]: > 100 µM
GI50 [46]: > 100 µM
TGI [46]: > 100 µM
GI50 [47]: > 100 µM
TGI [47]: > 100 µM
GI50 [48]: > 100 µM
TGI [48]: > 100 µM
GI50 [49]: > 100 µM
TGI [49]: > 100 µM
GI50 [50]: > 100 µM
TGI [50]: > 100 µM
GI50 [51]: > 100 µM
TGI [51]: > 100 µM
GI50 [53]: > 100 µM
TGI [53]: > 100 µM
GI50 [54]: > 100 µM
TGI [54]: > 100 µM
GI50 [55]: > 100 µM
TGI [55]: > 100 µM
GI50 [56]: > 100 µM
TGI [56]: > 100 µM
GI50 [60]: > 100 µM
TGI [60]: > 100 µM
